This passage reports IC50 and CC50 results from patent US20230286927A1, “2-PHENYLBENZOTRIAZOL-5-AMINE DERIVATIVES FOR THE TREATMENT AND PROPHYLAXIS OF HEPATITIS B VIRUS (HBV) INFECTION” (priority 2020, published 2023).

A value given as a limit tells only on which side of the number the result lay.

One series deals with HBsAg. The series is described as follows: PHH natural infection assay, HBsAg (alphalisa). Format: cell-based, HBV. The conditions noted are these: Hepatitis B virus, Hepatocyte, 72 h, read-out: HBsAg IC50. How it is done: (§1) Detailed procedures regarding primary human hepatocyte (PHH) HBV natural infection assay are described as below. One tube of frozen PHH (10 million cells) is thawed in 37° C. water bath and then transferred to 20 mL of PHH thawing medium (Sigma, InVitroGRO HT Medium, Cat. S03319) with gently mixing. The cells were then centrifuged at […] for 5 min, the supernatant was discarded and the tube was refilled with 25 mL of PHH plating medium (Sigma, InVitroGRO CP Medium, Cat. S03317). The tube was shaken very gently to re-suspend all cells, and then 50 μl of cells were transferred to each well 384-well collagen I coated plate with appropriate liquid handling equipment, e.g. Integra VIAFLO384 or Agilent Bravo. The cells were then cultured for 24 hours in a cell incubator. For HBV infection, after PHH attachment on the culture plate, the plating medium was removed and replenished with PHH culture medium containing HBV virus. The PHH culture medium was prepared with Dulbecco's Modified Eagle Medium (DMEM)/F12 (1:1 in volume ratio) containing 10% fetal bovine serum (Gibco, Cat. 10099141), 5 ng/mL human epidermal growth factor (Gibco, Cat.PHG031IL), 20 ng/mL dexamethasone (Sigma, Cat.D4902-100 mg), 250 ng/mL human recombinant insulin (Gibco, Cat.41400045) and 100 U/mL penicillin. HBV virus at 200 genome equivalent (GE) per cell with 4% PEG8000 (Sigma, Cat.P1458) containing culture medium were added to the PHH culture medium for infection. The cells were then cultured for 24 hours in cell incubator. Then the cell culture supernatant was removed. The HBV-infected PHH were cultured with sandwich culture method with PHH culture medium containing 1% DMSO and 0.25 mg/mL matrix gel for 72 hours. The supernatant was then refreshed with PHH culture medium containing different concentrations of testing compounds for two times with 72-hour interval. At the end of treatment, the supernatant was collected for viral markers measurements, including HBsAg, HBeAg, HBV DNA and cytotoxicity. HBsAg and HBeAg were detected using alphalisa method using their specific antibodies. For HBV DNA detection, HBV DNA Quantitative Fluorescence Diagnostic Kit (Sansure Biotech Inc.) was used following the manufacture's protocol. Cytotoxicity was determined using Cell Counting Kit-8 (CCK8, Dojindo Molecular Technologies, Inc.).
(§2) The compounds of the present invention were tested for their capacity to inhibit HBsAg and HBeAg as described herein.

Series [1] can be described thus: Cytotoxicity in PHH natural infection assay (Cell Counting Kit-8). Format: cell-based. The conditions noted are these: HBV-infected primary human hepatocytes, CCK8. The method, then:
as §1
A general note: Tetrazolium dyes change colour on reduction, which living cells bring about.

The subject of the next series is HBeAg. In words: PHH natural infection assay, HBeAg (alphalisa). Format: cell-based, HBV. The conditions noted are these: Hepatitis B virus, Hepatocyte, 72 h, read-out: HBeAg IC50. The method, then:
as §1, §2
(In general: Alpha assays give light when donor and acceptor beads are brought close together.)

As a reminder, the IC50 is the midpoint of a concentration-inhibition curve. For orientation: CC50 means the concentration that lowers cell viability or growth by half. Low values mean greater toxicity to the cells, high ones lower toxicity to the cells. With `CN(C)C(=S)Nc1ccc2nn(-c3ccc(Cl)cc3)nc2c1` [Example 61, 3-[2-(4-Chlorophenyl)benzotriazol-5-yl]-1,1-dimethyl-thiourea], the IC50 with HBsAg stood at 0.79 µM; in the series on HBeAg, 1.22 µM. The CC50 at 144 h in series [1] was over 100 µM.
The like results for `Cc1cc2nn(-c3ccc(Cl)cc3)nc2cc1NC(=S)NC(=O)c1ccccc1` [Example 59, N-[[2-(4-chlorophenyl)-6-methyl-benzotriazol-5-yl]carbamothioyl]benzamide] were, in that order, 1.11 µM, 3.04 µM and over 100 µM.
The like results for `Clc1ccc(-n2nc3ccc(Nc4nc(-c5ccccc5)cs4)cc3n2)cc1` [Example 63, N-[2-(4-chlorophenyl)benzotriazol-5-yl]-4-phenyl-thiazol-2-amine] were, in that order, 1.52 µM, 1.34 µM and over 100 µM.
As for `Clc1ccc(-n2nc3ccc(NCC4CCOC4)cc3n2)cc1` (stereo not drawn) [Example 23, 2-(4-Chlorophenyl)-N-(tetrahydrofuran-3-ylmethyl)benzotriazol-5-amine], the concentration for half-maximal inhibition (IC50) in the series with HBsAg was found to be 4.92 µM; in the series on HBeAg it was 7.67 µM. Moreover, the CC50 at 144 h in series [1] is over 100 µM.
The like results for `O=C(CC(F)(F)F)Nc1ccc2nn(-c3ccc(Cl)cc3)nc2c1` [Example 51, N-[2-(4-chlorophenyl)benzotriazol-5-yl]-3,3,3-trifluoro-propanamide] were, in that order, 4.09 µM, 1.66 µM and over 100 µM.
Turning to `Clc1ccc(-n2nc3ccc(NCC4CCCC4)cc3n2)cc1` [Example 26, 2-(4-Chlorophenyl)-N-(cyclopentylmethyl)benzotriazol-5-amine], the values for the IC50 with HBsAg and with HBeAg were 8.79 µM and 3.08 µM, respectively. The half-maximal cytotoxic concentration (CC50) at 144 h in series [1] is over 100 µM.
Taken in the same sequence, the figures for `CC(=O)Nc1ccc2nn(-c3ccc(Cl)cc3)nc2c1` [Example 38, N-[2-(4-chlorophenyl)benzotriazol-5-yl]acetamide] were 3.65 µM, 5.54 µM and over 100 µM.
Turning to `Clc1ccc(-n2nc3ccc(NCC4CC4)cc3n2)cc1` [Example 25, 2-(4-Chlorophenyl)-N-(cyclopropylmethyl)benzotriazol-5-amine], the IC50 in the series on HBsAg amounted to 5.95 µM; in the series with HBeAg it was 7.52 µM. Also, the CC50 at 144 h in series [1] is over 100 µM.
Taken in the same sequence, the figures for `O=C(NC(=S)Nc1ccc2nn(-c3ccc(Cl)cc3)nc2c1)C1CCCC1` [Example 56, N-[[2-(4-chlorophenyl)benzotriazol-5-yl]carbamothioyl]cyclopentanecarboxamide] were 3.45 µM, 7.5 µM and over 100 µM.
On to `Nc1ccc2nn(-c3cccc(F)c3)nc2c1` [Example 5, 2-(3-Fluorophenyl)benzotriazol-5-amine], for which the 50% inhibitory concentration (IC50) came out at 3.57 µM with HBsAg and 6.72 µM with HBeAg. In addition, the CC50 at 144 h in series [1] is over 100 µM.
As to `O=C(Nc1ccc2nn(-c3ccc(Cl)cc3)nc2c1)C1CCCC1` [Example 49, N-[2-(4-chlorophenyl)benzotriazol-5-yl]cyclopentanecarboxamide], the half-maximal inhibitory concentration (IC50) in the series with HBsAg is 2.84 µM; with HBeAg it was 1.29 µM. This compound gave a CC50 at 144 h in series [1] of over 100 µM.
Regarding `O=C(Nc1ccc2nn(-c3ccc(Cl)cc3)nc2c1)C1CCCO1` (stereo not drawn) [Example 50, N-[2-(4-chlorophenyl)benzotriazol-5-yl]tetrahydrofuran-2-carboxamide], the IC50 in the series on HBsAg turned out to be 1.26 µM; with HBeAg, 1.37 µM. The compound further returned a CC50 at 144 h in series [1] of over 100 µM.
On to `O=C(Nc1ccc2nn(-c3ccc(Cl)cc3)nc2c1)C1CCOCC1` [Example 45, N-[2-(4-chlorophenyl)benzotriazol-5-yl]tetrahydropyran-4-carboxamide], for which the IC50 with HBsAg is 3.39 µM; with HBeAg, 1.98 µM. Besides, in series [1], the CC50 at 144 h is over 100 µM.
Regarding `Cc1nc(Nc2ccc3nn(-c4ccc(Cl)cc4)nc3c2)sc1C` [Example 65, N-[2-(4-chlorophenyl)benzotriazol-5-yl]-4,5-dimethyl-thiazol-2-amine], the IC50 in the series on HBsAg turned out to be 2.67 µM; in the series on HBeAg, 2.91 µM. Besides, in series [1], the CC50 at 144 h is over 100 µM.
The like results for `Clc1ccc(-n2nc3ccc(NC4CCCC4)cc3n2)cc1` [Example 31, 2-(4-Chlorophenyl)-N-cyclopentyl-benzotriazol-5-amine] were, in that order, 8.86 µM, 11.9 µM and over 100 µM.
As for `CC(C)CS(=O)(=O)c1ccc(-n2nc3ccc(N)cc3n2)cc1` [Example 10, 2-(4-Isobutylsulfonylphenyl)benzotriazol-5-amine], the IC50 stood at 9.57 µM in the series with HBsAg and 5.56 µM in the series on HBeAg. The compound also gave a CC50 at 144 h in series [1] of over 100 µM.
With `Clc1ccc(-n2nc3ccc(NC4CCC4)cc3n2)cc1` [Example 29, 2-(4-Chlorophenyl)-N-cyclobutyl-benzotriazol-5-amine], the figures for the IC50 with HBsAg and in the series with HBeAg were 5.55 µM and 9.23 µM, respectively. In series [1], this compound had a CC50 at 144 h of over 100 µM.
The like results for `CNc1ccc2nn(-c3ccc(Cl)cc3)nc2c1` [Example 12, 2-(4-Chlorophenyl)-N-methyl-benzotriazol-5-amine] were, in that order, 1.83 µM, 2.44 µM and over 100 µM.
In the case of `COCCS(=O)(=O)c1ccc(-n2nc3ccc(N)cc3n2)cc1` [Example 9, 2-[4-(2-Methoxyethylsulfonyl)phenyl]benzotriazol-5-amine], the concentration for half-maximal inhibition (IC50) is 4.07 µM with HBsAg and 7.93 µM in the series with HBeAg. Also, the CC50 at 144 h in series [1] was over 100 µM.
With `Cc1cc2nn(-c3ccc(Cl)cc3)nc2cc1NC(N)=S` [Example 60, [2-(4-Chlorophenyl)-6-methyl-benzotriazol-5-yl]thiourea], the IC50 in the series with HBsAg was 2.28 µM; with HBeAg, 2.31 µM. Further, the CC50 at 144 h in series [1] is over 100 µM.
On to `O=C(Nc1ccc2nn(-c3ccc(F)cc3)nc2c1)C1CCCCO1` (stereo not drawn) [Example 42, N-[2-(4-fluorophenyl)benzotriazol-5-yl]tetrahydropyran-2-carboxamide], for which the IC50 in the series with HBsAg was 6.38 µM; with HBeAg, 6.12 µM. In series [1], this compound gave a CC50 at 144 h of over 100 µM.
For `Fc1ccc(-n2nc3ccc(NC4CCOC4)cc3n2)cc1` (stereo not drawn) [Example 21, 2-(4-Fluorophenyl)-N-tetrahydrofuran-3-yl-benzotriazol-5-amine], the half-inhibitory concentration (IC50) in the series with HBsAg was 9.74 µM; in the series with HBeAg, 10.6 µM. This compound also yielded a CC50 at 144 h in series [1] of over 100 µM.
Take `COCCNc1ccc2nn(-c3ccc(S(C)(=O)=O)cc3)nc2c1` [Example 19, N-(2-methoxyethyl)-2-(4-methylsulfonylphenyl)benzotriazol-5-amine]: the half-maximal inhibitory concentration (IC50) in the series with HBsAg is 8.94 µM; in the series with HBeAg, 6.97 µM. In series [1], this compound had a CC50 at 144 h of over 100 µM.
As for `Nc1ccc2nn(-c3cccc(Cl)c3)nc2c1` [Example 1, 2-(3-Chlorophenyl)benzotriazol-5-amine], the results for the IC50 in the series on HBsAg and in the series with HBeAg were 1.2 µM and 1.8 µM, respectively. This compound also gave a half-maximal cytotoxic concentration (CC50) at 144 h in series [1] of over 100 µM.
Taken in the same sequence, the figures for `CNC(=S)Nc1ccc2nn(-c3ccc(Cl)cc3)nc2c1` [Example 54, 1-[2-(4-chlorophenyl)benzotriazol-5-yl]-3-methyl-thiourea] were 2.68 µM, 4.59 µM and over 100 µM.
Taken in the same sequence, the figures for `COc1cccc(-n2nc3ccc(N)cc3n2)c1` [Example 6, 2-(3-Methoxyphenyl)benzotriazol-5-amine] were 2.44 µM, 4.1 µM and over 100 µM.
